Consider 9 molecules from PMC3665789 (PLoS ONE, 2013).

Where two headings read alike, the source gives them in different places. Some results are limits rather than exact numbers.

One series deals with PBMCs. Kind of series: Activation markers CD25 and CD69 on PBMCs (flow cytometry). It counts as cell-based. Particulars: 3 days, LabyA1 9.6 µM, PHA 0.016 µM. The procedure:
The effects of 9.6 µM LabyA1 and 0.016 µM PHA on the expression levels of the cellular activation markers CD25 and CD69 on PBMCs was measured after 3 days of incubation at 37°C. After washing with PBS/FCS2%, cells were incubated with anti-CD4 conjugated with PerCP (BD Biosciences) and co-stained with the PE-conjugated mAbs anti-CD25 or anti-CD69 (both BD Biosciences) for 30 min at 4°C. For aspecific background staining, cells were incubated with SimulTest™ Control (IgGγ1-FITC/IgGγ2a-PE). After washing, and fixation with 1% formaldehyde solution, samples were analyzed using the FACSCalibur and CellQuest software (BD Biosciences).
(In flow cytometry, cells or beads pass a laser one at a time.)

The test system of a further series is HIV-1 R5 BaL in PBMCs. Kind of series: Susceptibility of pre-treated PBMCs for HIV-1 infection. The conditions noted are these: washed, HIV-1 BaL, day 7.
The test system of series [1] is HSV-1 wild-type RV-175 (clinical isolate). Put plainly: microbe, parasite or virus in culture. The conditions noted are these: Human alphaherpesvirus 1, HEL.
The next series deals with HSV-2 wild-type. Kind of series: microbe, parasite or virus in culture. The conditions noted are these: Human alphaherpesvirus 2, HEL, read-out: Median EC50.
The test system of series [2] is HSV-2 wild-type G (reference strain). Put plainly: microbe, parasite or virus in culture. Particulars: Human alphaherpesvirus 2, HEL.
Another series relates to HSV-2 TK^-. Kind of series: Anti-HSV CPE assay in HEL, summary. It is filed as cell-based. Particulars: Human alphaherpesvirus 2, HEL, read-out: Median EC50.
The subject of series [3] is HSV-1 wild-type RV-174 (clinical isolate). Kind of series: microbe, parasite or virus in culture. Particulars: Human alphaherpesvirus 1, HEL.
For series [4], the system named is HSV-1 wild-type C559142 (clinical isolate). Kind of series: microbe, parasite or virus in culture. Particulars: Human alphaherpesvirus 1, HEL.
The subject of series [5] is HSV-2 wild-type RV-124 (clinical isolate). Put plainly: microbe, parasite or virus in culture. Particulars: Human alphaherpesvirus 2, HEL.
In a further series the test system is HSV-1 TK^-. Put plainly: microbe, parasite or virus in culture. Particulars: Human alphaherpesvirus 1, HEL, read-out: Median EC50.
In the next series the test system is HSV-1 wild-type. Put plainly: microbe, parasite or virus in culture. Particulars: Human alphaherpesvirus 1, HEL, read-out: Median EC50.
The next series relates to HSV-2 strain G. Put plainly: Time-of-drug-addition study, HSV-2. It counts as cell-based. The conditions noted are these: HEL cells; LabyA1 19 µM, ACV 35 µM; after 3 days. As to the method: TOA experiments for HSV-2 were performed identically as the viral replication assays, but each compound separately (LabyA1 or ACV) was added together with the virus (0 h) or after 2 h post-infection. The reference compound was added at least 100 times its EC50-value, as obtained in the HEL cell line (Table 3).

The subject of series [6] is HSV-2 wild-type RV-24 (clinical isolate). Kind of series: microbe, parasite or virus in culture. The conditions noted are these: Human alphaherpesvirus 2, HEL.
Series [7] deals with HSV-1 wild-type KOS (reference strain). Kind of series: microbe, parasite or virus in culture. Particulars: Human alphaherpesvirus 1, HEL.
The test system of series [8] is HSV-1 TK^- RV-117 (clinical isolate). Put plainly: microbe, parasite or virus in culture. The conditions noted are these: Human alphaherpesvirus 1, HEL.
In series [9] the test system is HSV-2 TK^- RV-129 (clinical isolate). Kind of series: microbe, parasite or virus in culture. It is filed as cell-based. Particulars: Human alphaherpesvirus 2, HEL.
Series [10] has as its system HSV-1 TK^- RV-294 (clinical isolate). Put plainly: microbe, parasite or virus in culture. The conditions noted are these: Human alphaherpesvirus 1, HEL.
Series [11] concerns HSV-1 TK^- RV-179 (clinical isolate). Put plainly: microbe, parasite or virus in culture. The conditions noted are these: Human alphaherpesvirus 1, HEL.
Series [12] deals with HSV-2 TK^- BA19026589 (clinical isolate). Put plainly: microbe, parasite or virus in culture. Particulars: Human alphaherpesvirus 2, HEL.
The test system of another series is HIV-1 NL4.3. Put plainly: Pre-incubation of MT-4 cells with compound, wash, then HIV-1 NL4.3 infection. It is filed as cell-based. Particulars: MT-4 cells pre-incubated 2 h at 37°C, washed, infected with HIV-1 NL4.3; 5 days; control 100% CPE.
In a further series the test system is herpes virus. Kind of series: Anti-herpes virus activity of griffithsin in vitro. It counts as cell-based.
The next series concerns HIV. More on the design: method as in PMID 15613479, PMID 17669213. Particulars: cited from earlier work.
Another series deals with HIV-1 IIIB. Kind of series: Time-of-drug-addition study, HIV. It is filed as cell-based. The conditions noted are these: MT-4 cells; for time of addition after infection at which antiviral activity is completely lost: p24 Ag ELISA after 31 h, 421 µM dextran sulfate 8000, 6 µM AMD3100. The procedure: The time-of-drug-addition (TOA) experiments were performed as described. In brief, 1×10^6 MT-4 cells/ml were infected with HIV-1 X4 IIIB at a multiplicity of infection (MOI) of 0.5. The compounds were added at different time points in a range from 0 to 26 h post-infection. After 31 h, HIV-1 replication was detected by p24 HIV-1 Ag ELISA as described above. The reference compounds were added at 100 times their EC50-values, as obtained in the MT-4 cell antiviral assay.
(ELISA stands for enzyme-linked immunosorbent assay.)

Series [13] has as its system HIV-1 NL4.3 binding to CD4+ SupT1 cells. It is filed as cell-based. The conditions noted are these: LabyA1 9.6 µM, sCD4 10 µg/ml, AMD3100 12 µM; no compound MFI 9.8, background 3.9.

Description for HIV-1 R5 BaL in PBMCs: The next day, cells were collected, extensively washed in culture medium, resuspended (5×10^5 cells/450 µl) and seeded in a 48-well plate. Immediately afterwards, 50 µl of HIV-1 R5 strain BaL (500 pg/well) was added and cells were cultures for 7 days. Supernatant was collected 7 days post virus infection and viral replication was determined by p24 HIV-1 Ag ELISA.

With “phytohemagglutinin [PHA, reference compound]”, in the series with PBMCs (untreated 1.4±0.8%), the “percentage of CD4+CD69+ cells” value is listed as 30.9±5.5%. Further, the “percentage of CD4+CD25+ cells” value with PBMCs (untreated 10.7±3.2%) came to 37.2±6.6%. The “p24 HIV-1 Ag production after pre-treatment” value in the series with HIV-1 R5 BaL in PBMCs (PBMCs pre-treated 24 h with 0.016 µM) came to 125.08 ± 37.81 ng/mL; with HIV-1 R5 BaL in PBMCs (PBMCs pre-treated 24 h with 0.078 µM) it was 169.54 ± 35.22 ng/mL.
The term EC50 denotes the concentration needed to bring the measured effect to its halfway point. Consider `Nc1nc2c(ncn2COCCO)c(=O)[nH]1` [Acyclovir, acyclovir], for which the EC50 in series [1] amounted to 180 ± 30 nM; in the series with HSV-2 wild-type, 270 nM; in series [2], 270 ± 10 nM; in the series on HSV-2 TK^-, 52000 nM; in series [3] it was 310 ± 20 nM; in [4], 90 ± 20 nM. In addition, the EC50 in series [5] is 400 ± 60 nM; in the series with HSV-1 TK^-, above 79000 nM; in the series on HSV-1 wild-type, 180 nM; in [6] it was 130 ± 90 nM; in series [7], 180 ± 90 nM. In the series with HSV-2 strain G, the “HSV-2 induced CPE, compound given simultaneously with virus (0 h)” value is on record as “no CPE or viral replication were observed”. In the series on HSV-2 strain G, the “antiviral activity, compound added after 2 h adsorption period” value was “still active”.
As to `Nc1ccn(C[C@@H](CO)OCP(=O)(O)O)c(=O)n1` [Cidofovir, cidofovir], the EC50 in series [1] turned out to be 1100 ± 100 nM; in the series with HSV-2 wild-type, 1100 nM; in series [8], 500 ± 120 nM; in series [2] it was 600 ± 100 nM; with HSV-2 TK^-, 750 nM; in series [3], 1300 ± 100 nM. Besides, the EC50 was determined as 530 ± 90 nM in [4]; 1300 ± 300 nM in series [5]; 550 ± 200 nM in series [9]; 390 nM in the series with HSV-1 TK^-; 300 ± 20 nM in [10]; 820 nM in the series with HSV-1 wild-type. Also, the EC50 was 390 ± 120 nM in [11], 1100 ± 300 nM in [6], 950 ± 240 nM in series [12] and 480 ± 110 nM in [7].
As for enfuvirtide [T20], in the series with HIV-1 NL4.3, the “% CPE after pre-incubation of cells and removal of compound” value was found to be 72.6±13.4 % CPE.
Take `C[C@H](Cn1cnc2c(N)ncnc21)OCP(=O)(O)O` [tenofovir]: the concentration for a half-maximal effect (EC50) in series [2] (read-out: EC50 against HSV-2) was above 200000 nM.
With Griffithsin, the “anti-herpes virus activity in vitro” value in the series with herpes virus is given as “lacks anti-herpes virus activity in vitro”. Besides, the anti-HIV activity entry in the series on HIV is given as “pM range”.
As to `c1cc(CN2CCCNCCNCCCNCC2)ccc1CN1CCCNCCNCCCNCC1` [AMD3100], the “% CPE after pre-incubation of cells and removal of compound” value with HIV-1 NL4.3 is recorded as 13.5±5.5 % CPE. Further, the “time of addition after infection at which antiviral activity is completely lost” value in the series with HIV-1 IIIB was 2 h. For the same molecule, the “virus binding, mean fluorescence intensity (MFI) of anti-gp120 (9205) mAb” value in series [13] amounted to 9.5.
As for `Cc1ccnc2c1NC(=O)c1cccnc1N2C1CC1` [nevirapine], in the series with HIV-1 IIIB (7.5 µM nevirapine), the “time of addition post-infection up to which full activity is kept” value is reported as 4 h.
Regarding dextran sulfate 8000, in the series on HIV-1 IIIB, the “time of addition after infection at which antiviral activity is completely lost” value is on record as 1 h.
